Reference: patent US7081092B2, “Methods and apparatus for monitoring and quantifying the movement of fluid” (IMCOR Pharmaceutical Company, priority 1994, dated 2006)

Tests used:
Type in all cases: physicochemical
[1] = Solubility/miscibility of liquid form with hexane
Procedure: In such systems, suitable gases are ones that have a solubility/miscibility of their liquid forms with hexane, which is a model for the hydrophobic region of surfactants, of greater than 10% mole/mole at 37° C. For gases with a boiling point below 37° C., e.g. butane and perfluorobutane, this measurement must be carried out at elevated pressure. The adsorbing gas should be present in the bubble gas phase at a concentration of more than 2% by mole fraction of the gas mixture and preferably at about 5%, 10%, 25%, 50%, or 100%. The use of fluorinated surfactants with fluorinated gases is preferred. The liquid phase of the adsorbing gas should be relatively insoluble in water, less than 1% wt./wt. solubility/miscibility.

Solubility in water = assay: Solubility in water
Text: (§1) In order to stabilize microbubbles in this fashion and provide desirable harmonic characteristics, the osmotic agent is preferably present in the gas phase of the bubble at a mole fraction concentration of greater than approximately 2%, and more preferably at about 5%, 10%, 25%, 50%, or 100%. The vapor inside the bubble is preferably near saturation under the conditions of examination, preferably at least about 50%, 75% or 100% of the saturation concentration. Thus, for microbubbles used for imaging in a human, the liquid phase of the vapor in the bubble must have a vapor pressure at 37° C. greater than 2% of the pressure inside the bubble (one atmosphere plus the blood pressure of the human being examined plus the pressure caused by the surface tension of the bubble, the LaPlace pressure). This total pressure for 3 micron bubbles could reach 1.5 bar and thus requires the liquid phase of the vapor in the bubble to have a vapor pressure at 37° C. greater than approximately 23 torr. The liquid phase of the vapor should also have a low solubility in water, preferably less than 1% wt./wt.
In such systems, suitable gases are ones that have a solubility/miscibility of their liquid forms with hexane, which is a model for the hydrophobic region of surfactants, of greater than 10% mole/mole at 37° C. […]

Vapor pressure at 37° C. = assay: Vapor pressure at 37° C.
Text: as §1

In the case of FC(F)(F)C(F)(F)C(F)(F)C(F)(F)F [perfluorobutane], the Solubility in hexane [1] is reported as “greater than 10 % mole/mole” and the Water solubility (Solubility in water) is reported as “less than 1 % wt./wt”.

For FC(F)(F)C(F)(F)C(F)(F)C(F)(F)C(F)(F)C(F)(F)F [perfluorohexane], the Water solubility (Solubility in water) was “less than 1 % wt./wt” and the Vapor pressure (Vapor pressure at 37° C.) was “over 23 torr”.

With FC(F)(F)C(F)(F)C(F)(F)C(F)(F)C(F)(F)F [perfluoropentane] the “Solubility in water and hexane versus criteria for adsorption in surfactant layer” value [1] was “meet the criteria above”.
